Measured values from paper PMC4302234, “Multifunctional peptides derived from an egg yolk protein hydrolysate: isolation and characterization” (Amino Acids, 2014).
pIC50: −log10 of the molar value. “And” between values parts separate entries of the source, which are not always exact repeats. Equal values may be shown once. No end group written: not given here.

Assays:
α-glucosidase = settings: peptide from ovalbumin; ref Yu et al. [2012]; read-out: α-glucosidase inhibitory activity IC50; cited from earlier work
[1] = target: T1, ACE (EC 3.4.15.1; from rabbit lung) (Oryctolagus cuniculus, UniProt P12822); test: ACE inhibitory activity (HHL substrate, spectrophotometric); assay type: biochemical; settings: synthetic peptides; mean n = 3; read-out: Enzyme inhibitory activity (IC50) ACE (converted)
T1 construct: The ACE (EC 3.4.15.1; from rabbit lung, Sigma, A6778); purchased Sigma A6778; host or cells: rabbit lung tissue
T1 sequence (P12822 34-1310): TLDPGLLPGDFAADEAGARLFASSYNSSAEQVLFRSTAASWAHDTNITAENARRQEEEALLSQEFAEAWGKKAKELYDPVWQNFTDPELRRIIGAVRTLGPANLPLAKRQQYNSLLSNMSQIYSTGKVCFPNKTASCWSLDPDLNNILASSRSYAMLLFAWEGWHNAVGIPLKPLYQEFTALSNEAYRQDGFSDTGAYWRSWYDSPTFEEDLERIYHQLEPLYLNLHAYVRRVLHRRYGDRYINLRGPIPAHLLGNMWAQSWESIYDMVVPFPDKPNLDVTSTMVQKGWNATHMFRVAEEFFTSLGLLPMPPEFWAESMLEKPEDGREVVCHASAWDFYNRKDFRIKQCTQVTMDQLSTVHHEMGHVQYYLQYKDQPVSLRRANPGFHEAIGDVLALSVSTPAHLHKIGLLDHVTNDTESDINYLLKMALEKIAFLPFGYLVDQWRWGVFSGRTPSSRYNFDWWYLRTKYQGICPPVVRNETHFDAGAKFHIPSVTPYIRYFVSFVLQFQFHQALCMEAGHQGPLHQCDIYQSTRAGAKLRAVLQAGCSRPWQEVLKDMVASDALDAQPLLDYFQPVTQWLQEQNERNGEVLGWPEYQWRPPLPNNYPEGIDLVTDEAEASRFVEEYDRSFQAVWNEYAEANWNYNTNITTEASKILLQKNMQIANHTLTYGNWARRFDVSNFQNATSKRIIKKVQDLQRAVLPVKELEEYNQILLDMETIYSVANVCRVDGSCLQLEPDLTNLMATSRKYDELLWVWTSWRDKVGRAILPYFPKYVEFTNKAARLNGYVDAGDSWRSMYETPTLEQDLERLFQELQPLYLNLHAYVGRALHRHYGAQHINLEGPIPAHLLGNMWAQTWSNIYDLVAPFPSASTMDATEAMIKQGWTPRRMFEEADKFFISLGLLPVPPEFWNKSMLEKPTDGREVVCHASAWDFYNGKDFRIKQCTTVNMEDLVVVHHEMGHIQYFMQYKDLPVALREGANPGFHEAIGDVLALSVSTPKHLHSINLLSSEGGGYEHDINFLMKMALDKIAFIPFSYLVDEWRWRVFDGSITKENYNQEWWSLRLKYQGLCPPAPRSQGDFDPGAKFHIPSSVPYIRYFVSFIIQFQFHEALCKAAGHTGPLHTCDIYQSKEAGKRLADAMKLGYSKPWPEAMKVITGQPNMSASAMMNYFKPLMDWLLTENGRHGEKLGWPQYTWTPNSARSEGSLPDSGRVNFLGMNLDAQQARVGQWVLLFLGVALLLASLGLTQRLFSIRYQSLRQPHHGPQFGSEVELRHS
Procedure: The ACE (EC 3.4.15.1; from rabbit lung, Sigma, A6778) inhibitory activity of hydrolysate and peptide fractions was measured spectrophotometrically according to Miguel et al. ([2004]). A hydrolysate solution (40 µL) mixed with a Hippuryl-His-Leu (HHL) (Sigma H4884) solution (5 mM in 100 mM potassium phosphate containing 300 mM sodium chloride, pH 8.3) as substrate was preincubated at 37 °C for 5 min, and the reaction was initiated by adding 20 µL (2 mU) of ACE solution and incubating for 30 min at the same temperature. The enzymatic reaction was halted by the addition of 150 µL of 1 M HCl. The liberated hippuric acid was extracted using 1 mL of ethyl acetate and vigorous shaking, after which 750 µL of the upper layer was transferred into a test tube and evaporated in a vacuum. The hippuric acid left in the tubes was re-dissolved in 800 µL of distilled water and the absorbance was measured at λ = 228 nm. All samples were tested in three replications. The inhibition activity was calculated using the following equation:
Inhibition activity (%) = [(A − B)/A] × 100 %
where A is the reaction blank, of which the mixture contained the same volume of the buffer solution instead of the ACE inhibitor sample; B is the reaction in the presence of both ACE and its inhibitor. The IC50 value was estimated from a dose–response curve of an inhibitor versus the ACE activity.

[2] = target: T2, DPP-4 from porcine kidney (Sus scrofa, UniProt P22411); test: Dipeptidyl peptidase-4 (DPP-4) inhibitory activity (Gly-Pro-p-nitroanilide); assay type: biochemical; settings: synthetic peptides, mean n = 3; for IC50: read-out: Enzyme inhibitory activity (IC50) DPP-4 (converted)
T2 construct: DPP-4 from porcine kidney was purchased from Sigma (D7052); purchased Sigma D7052; host or cells: porcine kidney tissue
Procedure: DPP-4 inhibitory activity (IC50) was determined using a modified method of Lacroix and Li-Chan (2013). DPP-4 from porcine kidney was purchased from Sigma (D7052). The lyophilized peptide fractions were re-suspended in 0.1 M Tris–HCl buffer, pH 8.0. The test sample (25 μL) was preincubated with an equal volume of the substrate Gly-Pro-p-nitroanilide (1.6 mM) at 37 °C for 10 min. Afterwards, 50 μL of DPP-4 (0.01 U/mL, in 0.1 M Tris–HCl buffer, pH 8.0) was added and the mixture was incubated at 37 °C for 60 min. The reaction was stopped by the addition of 100 μL of 1 M sodium acetate buffer, pH 4.0. The released p-nitroanilide as a hydrolysis product was measured at λ = 405 nm.
The IC50 value was defined as the concentration of inhibitor required to inhibit 50 % of DPP-4 activity under assay conditions.

[3] = target: α-Glucosidase from Saccharomyces cerevisiae (Saccharomyces cerevisiae, UniProt P53341); test: α-Glucosidase inhibitory activity (pNPG substrate); assay type: biochemical; settings: synthetic peptides, mean n = 3; for IC50: read-out: Enzyme inhibitory activity (IC50) α-Glucosidase (converted)
Procedure: The α-glucosidase inhibition assay was performed according to the method of Yu et al. ([2011]). α-Glucosidase from Saccharomyces cerevisiae (Sigma G0660) hydrolyzes the substrate—p-nitrophenyl glucopyranoside (pNPG) (Sigma N1377) and the thus produced p-nitrophenol can be measured spectrophotometrically. 5 µL of the α-glucosidase solution (10 U/mL, in 0.1 M potassium phosphate buffer, pH 6.8) was premixed with 10 µL of the sample solution at different concentrations (in 10 % DMSO) in 620 µL of 0.1 M potassium phosphate buffer (pH 6.8). Following incubation at 37.5 °C for 20 min, 10 µL of p-nitrophenyl glucopyranoside (pNPG 10 mM) as substrate was added to the mixture to start the reaction and was then incubated at 37.5 °C for 30 min, followed by addition of 650 µL of 1 M Na2CO3 solution to terminate the reaction. The amount of released product (p-nitrophenol) was measured at λ = 410 nm. The IC50 value was defined as the concentration of inhibitor required to inhibit 50 % of α-glucosidase activity under assay conditions.

[4] = FRAP method (ferric reducing antioxidant power); settings: synthetic peptides; mean n = 3
Procedure: The ferric reducing antioxidant power (FRAP) method was used to determine the antioxidative capacity of hydrolysates according to Benzie and Strain ([1996]). 3 mL of FRAP working solution [300 mM acetate buffer pH 3.6; 10 mM 2,4,6,tripyridyl-s-triazine (TPTZ) (Fluka, 93285) and 20 mM FeCl3 × 6 H2O (10:1:1 v/v)] was mixed with 1 mL of the sample. After 10 min of reaction, the absorbance was measured at λ = 593 nm. An aqueous solution of known Fe(II) concentration was used for calibration (in the range from 100 to 1,000 μg). Results were expressed as μg Fe^2+/mg protein.

[5] = Fe(II) ion chelation (ferrozine); settings: synthetic peptides; mean n = 3
Procedure: Chelation of iron ions by hydrolysates was estimated by the method of Xu et al. ([2007]) with modifications. A 250 μL sample was mixed with 1,250 μL H2O and 110 μL 1 mM FeCl2. After 2 min, 1 mL of 500 μM ferrozine (Sigma 160601) aqueous solution was added and the mixture was allowed to react for 10 min. The absorbance of ferrous iron–ferrozine complex was measured spectrophotometrically at λ = 562 nm. A known concentration of FeCl2 (0–20 μg) was used to generate a standard curve and the ability to chelate iron ions was expressed as μg Fe^2+/mg protein.

[6] = Antioxidant activity as ability to scavenge DPPH free radicals; settings: synthetic peptides; mean n = 3
Procedure: The antioxidant activity of the obtained hydrolysates was assessed on the basis of the radical scavenging effect of the stable 1,1-diphenyl-2-picrylhydrazyl [DPPH (Sigma, D21140-0)]—free radical activity according to Yen and Chen ([1995]), with minor modifications. The tested samples were dissolved in water to a final volume of 1 mL and mixed with 1 mL of ethanol (98 %). The reaction was started by adding 0.5 mL of […] DPPH in ethanol. The mixtures were left for 30 min at room temperature and the absorbance of the resulting solutions was measured at 517 nm. For calibration, aqueous solutions of known Trolox concentrations ranging from 2 to 20 μg (able to scavenge 500 μL of 0.3 mM DPPH radical solution) were used. Radical scavenging activity of the peptides was expressed as µM troloxeq/mg protein.

T2 sequence (P22411 whole entry): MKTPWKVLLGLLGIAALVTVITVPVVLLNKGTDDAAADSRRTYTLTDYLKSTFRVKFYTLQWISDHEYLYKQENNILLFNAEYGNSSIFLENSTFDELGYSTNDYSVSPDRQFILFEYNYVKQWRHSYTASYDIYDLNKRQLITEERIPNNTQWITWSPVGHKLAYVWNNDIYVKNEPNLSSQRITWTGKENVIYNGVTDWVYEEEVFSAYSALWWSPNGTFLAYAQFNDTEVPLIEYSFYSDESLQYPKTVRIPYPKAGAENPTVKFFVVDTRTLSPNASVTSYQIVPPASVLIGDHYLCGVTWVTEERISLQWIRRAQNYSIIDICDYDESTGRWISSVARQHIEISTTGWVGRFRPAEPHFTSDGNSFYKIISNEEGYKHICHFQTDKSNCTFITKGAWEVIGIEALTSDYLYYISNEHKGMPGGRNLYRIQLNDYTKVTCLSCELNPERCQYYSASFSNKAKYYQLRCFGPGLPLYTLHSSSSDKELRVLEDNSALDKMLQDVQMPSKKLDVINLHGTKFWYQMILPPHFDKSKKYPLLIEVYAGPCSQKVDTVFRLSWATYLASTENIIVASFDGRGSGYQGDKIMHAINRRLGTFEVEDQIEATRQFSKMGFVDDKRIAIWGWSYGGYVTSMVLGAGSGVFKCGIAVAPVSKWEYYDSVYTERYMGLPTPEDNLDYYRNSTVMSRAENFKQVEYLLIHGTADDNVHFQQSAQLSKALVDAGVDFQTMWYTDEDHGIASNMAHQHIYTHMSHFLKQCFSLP
α-Glucosidase from Saccharomyces cerevisiae, sequence (P53341 whole entry): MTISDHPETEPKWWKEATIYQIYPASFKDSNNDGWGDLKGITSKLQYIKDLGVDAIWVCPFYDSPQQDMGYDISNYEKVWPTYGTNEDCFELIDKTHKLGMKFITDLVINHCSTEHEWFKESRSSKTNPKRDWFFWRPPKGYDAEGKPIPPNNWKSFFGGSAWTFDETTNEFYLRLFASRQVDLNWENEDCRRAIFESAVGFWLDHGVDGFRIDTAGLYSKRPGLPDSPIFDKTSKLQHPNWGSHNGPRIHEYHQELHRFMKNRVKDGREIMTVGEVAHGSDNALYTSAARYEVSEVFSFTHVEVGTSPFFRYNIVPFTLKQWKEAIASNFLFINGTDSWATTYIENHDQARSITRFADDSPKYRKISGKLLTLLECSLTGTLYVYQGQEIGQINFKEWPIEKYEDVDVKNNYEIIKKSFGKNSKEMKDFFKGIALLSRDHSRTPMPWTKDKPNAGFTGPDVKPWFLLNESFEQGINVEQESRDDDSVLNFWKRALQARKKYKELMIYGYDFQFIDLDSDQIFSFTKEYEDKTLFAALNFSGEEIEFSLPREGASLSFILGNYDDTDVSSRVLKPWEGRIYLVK

| Substance | pIC50 (α-glucosidase) | IC50 [1] [µM] | IC50 [2] [µM] | IC50 [3] [µM] | Antioxidant activity FRAP [4] | Enzyme inhibitory activity (IC50) DPP-4 [2] | Antioxidant activity CHEL. [5] [b µg Fe^2+/mg] | Enzyme inhibitory activity (IC50) α-Glucosidase [3] | Antioxidant activity DPPH [6] |
| --- | --- | --- | --- | --- | --- | --- | --- | --- | --- |
| KLPGF | 4.23 |  |  |  |  |  |  |  |  |
| VTGRFAGHPAAQ [VTGRFAGHPAAQ] |  | 22.5 | 1160 | 302 |  |  |  |  |  |
| YIEAVNKVSPRAGQF-OH [YIEAVNKVSPRAGQF] |  | 5.6 |  |  | 61.0 µg Fe^2+/mg and 61.0b µg Fe^2+/mg | no impact | 25.2 | no impact | 2.2 µM Troloxeq/mg and 2.2c µM Troloxeq/mg |
| YINQMPQKSRE [YINQMPQKSRE] |  | 7.25 | 160 | 1220 |  |  |  |  |  |
| YINQMPQKSREA [YINQMPQKSREA] |  | 8.6 | 243 | 310 |  |  |  |  |  |
